The values below come from publication PMC6804229, “Cytotoxic Xanthones from Hypericum stellatum, an Ethnomedicine in Southwest China” (Molecules, 2019).

Where two headings read alike, the source gives them in different places.

The test system of series [1] is Huh-7. Kind of series: MTS cytotoxicity assay, Huh-7. Background: Tetrazolium dyes change colour on reduction, which living cells bring about.
Procedure: (§1) The isolated compounds were tested in vitro for their cytotoxicity to five human liver carcinoma cell lines (SMMC-7721, Huh-7, HepG2, SK-HEP-1, PLC/PRF/5) and the immortalized noncancerous human liver cell (LO2), in a 3-(4,5-dimethylthiazol-2-yl)-5(3-carboxymethoxyphenyl)2-(4-sulfopheny)-2H-tetrazolium (MTS; Promega, Beijing, China) assay [31]. In general, cells in the log phase of their cycle were seeded in 96-well plates (4000–5000 cells/well, NEST Biotechnology, Wuxi, China) in a 100-μL volume. After 12 h of incubation at 37 °C, each test compound was added. The cancer cell lines were exposed to the test compounds at five concentrations (0.064, 0.32, 1.6, 8, and 40 μM) in triplicate with cisplatin (Meilunbio, CAS No. 15663-27-1) and Taxol (Meilunbio, CAS No. 33069-62-4) as the positive control. After incubation for 48 h at 37 °C, 20 μL of MTS solution and 100 μL DMEM were added into the well. The incubation continued for another 1–4 h.
Series [2] deals with five human liver carcinoma cell lines. Kind of series: cells. In kind it is cell-based. The protocol: The incubation continued for another 1–4 h.
Series [3] has as its system PLC/PRF/5. As to the kind of experiment: MTS cytotoxicity assay, PLC/PRF/5.
Procedure: as §1
Series [4] has as its system HepG2. Kind of series: MTS cytotoxicity assay, HepG2.
Procedure: as §1
Series [5] relates to SK-HEP-1. Kind of series: MTS cytotoxicity assay, SK-HEP-1.
Procedure: as §1
The subject of series [6] is LO2.
Source text: (§2) Considering its purported medicinal value for the treatment of liver disease, we tested the cytotoxic activities of ten xanthones isolated from H. stellatum against five human liver carcinoma cell lines (SMMC-7721, Huh-7, HepG2, SK-HEP-1, PLC/PRF/5), as well as the immortalized non-cancerous human liver cell (LO2) by the MTS method, in vitro, with cisplatin (CAS No. 15663-27-1, Meilunbio, Dalian, China) and Taxol (CAS No. 33069-62-4, Meilunbio, Dalian, China) as positive controls.
as §1
Series [7] relates to SMMC-7721. Kind of series: MTS cytotoxicity assay, SMMC-7721.
Procedure: as §1
Series [8] has as its system LO2. As to the kind of experiment: cells. Conditions: Homo sapiens, L02, 48 h, read-out: IC50 ± SD.
Source text: as §2, §1
Series [9] relates to PLC/PRF/5.
Procedure: as §1
The subject of another series is PKC. Also noted: method as in PMID 26245668. Conditions: synthesized isojacareubin; cited from earlier work.
Series [10] relates to SK-HEP-1.
Procedure: as §1
The subject of series [11] is Huh-7.
Procedure: as §1
Series [12] relates to SMMC-7721.
Procedure: as §1
The subject of series [13] is HepG2.
Procedure: as §1
Setting [14] is: read-out: IC50 ± SD, Huh-7, MTS, 48 h, mean of three independent experiments.
Setting [15] is: range over five human liver carcinoma cell lines, read-out: IC50 value range.
The mark [16] stands for this setting: read-out: IC50 ± SD, PLC/PRF/5, MTS, 48 h, mean of three independent experiments.
[17] abbreviates: read-out: IC50 ± SD, HepG2, MTS, 48 h, mean of three independent experiments.
Setting [18] is: read-out: IC50 ± SD, SK-HEP-1, MTS, 48 h, mean of three independent experiments.
Where [19] appears, read: read-out: IC50 ± SD, LO2 human normal liver cell line, MTS, 48 h, mean of three independent experiments.
[20] abbreviates: read-out: IC50 ± SD, SMMC-7721, MTS, 48 h, mean of three independent experiments.
Where [21] appears, read: Homo sapiens, Huh-7, 48 h, read-out: IC50 ± SD.
[22] abbreviates: Homo sapiens, PLC-PRF-5, 48 h, read-out: IC50 ± SD.
Setting [23] is: Homo sapiens, HepG2, 48 h, read-out: IC50 ± SD.
Setting [24] is: Homo sapiens, HepG2, read-out: cytotoxic activity (class).
The mark [25] stands for this setting: Homo sapiens, SK-HEP1, 48 h, read-out: IC50 ± SD.
[26] abbreviates: Homo sapiens, SMMC-7721, 48 h, read-out: IC50 ± SD.
Where [27] appears, read: Homo sapiens, SMMC-7721, read-out: cytotoxic activity (class).
Setting [28] is: Homo sapiens, SK-HEP1, read-out: cytotoxic activity (class).
The mark [29] stands for this setting: Homo sapiens, Huh-7, read-out: cytotoxic activity (class).
Where [30] appears, read: Homo sapiens, PLC-PRF-5, read-out: cytotoxic activity (class).

`N.N.[Cl][Pt][Cl]` [Cisplatin, cisplatin, reference compound]: the IC50 with Huh-7 [1] (setting [14]) was 16 ± 0.95 µM; in series [2] (setting [15]), 4.47 to 20.6 µM; in the series with PLC/PRF/5 [3] (setting [16]), 10.7 ± 0.8 µM; in the series with HepG2 [4] (setting [17]), 10.3 ± 0.5 µM; with SK-HEP-1 [5] (setting [18]) it was 20.6 ± 1.03 µM; with LO2 [6] (setting [19]), 13.9 ± 0.87 µM. The IC50 with SMMC-7721 [7] (setting [20]) was 4.47 ± 0.27 µM.
Consider `COc1cc2oc3ccccc3c(=O)c2cc1O` [Compound 1, 2-hydroxy-3-methoxyxanthone], for which the IC50 in the series with LO2 [8] is 14.5 ± 0.95 µM; in the series on Huh-7 [1] (setting [21]) it was above 40 µM; with PLC/PRF/5 [3] (setting [22]), above 40 µM; in the series with HepG2 [4] (setting [23]) it was 10.2 ± 0.12 µM; in the series on HepG2 [4] (setting [24]) it was 10 to 40 µM; in the series with SK-HEP-1 [5] (setting [25]), above 40 µM. Also, the IC50 in the series with SMMC-7721 [7] (setting [26]) was above 40 µM.
For `O=c1c2c(O)cccc2oc2cc(O)cc(O)c12` [Compound 2, 1,3,8-trihydroxyxanthone], the IC50 in the series on LO2 [8] was above 40 µM; in the series on Huh-7 [1] (setting [21]), above 40 µM; with PLC/PRF/5 [3] (setting [22]) it was above 40 µM; with HepG2 [4] (setting [23]) it was above 40 µM; with SK-HEP-1 [5] (setting [25]), above 40 µM; in the series on SMMC-7721 [7] (setting [26]), 15.2 ± 0.27 µM. In the series on SMMC-7721 [7] (setting [27]), the IC50 is 10 to 40 µM.
Turning to `O=c1c2cc(O)c(O)cc2oc2cc(O)cc(O)c12` [Compound 3, 1,3,6,7-tetrahydroxylxanthone], the IC50 in the series on Huh-7 [1] (setting [21]), with PLC/PRF/5 [3] (setting [22]), with HepG2 [4] (setting [23]), in the series with SK-HEP-1 [5] (setting [25]) and with SMMC-7721 [7] (setting [26]) was above 40 µM throughout.
Turning to `O=c1c2cc(O)ccc2oc2cc(O)cc(O)c12` [Compound 4, 1,3,7-trihydroxyxanthone], the IC50 was above 40 µM with LO2 [8]; above 40 µM with Huh-7 [1] (setting [21]); above 40 µM in the series with PLC/PRF/5 [3] (setting [22]); 22.6 ± 1.43 µM in the series with HepG2 [4] (setting [23]); 10 to 40 µM in the series on HepG2 [4] (setting [24]); above 40 µM in the series on SK-HEP-1 [5] (setting [25]). The IC50 in the series on SMMC-7721 [7] (setting [26]) was above 40 µM.
Consider `COc1cc(O)cc2oc3cc(O)c(O)cc3c(=O)c12` [Compound 5, 3,6,7-trihydroxy-1-methoxyxanthone], for which the IC50 in the series with Huh-7 [1] (setting [21]), in the series with PLC/PRF/5 [3] (setting [22]), with HepG2 [4] (setting [23]), in the series on SK-HEP-1 [5] (setting [25]) and with SMMC-7721 [7] (setting [26]) was above 40 µM each time.
With `COc1cc2oc3cc(O)cc(O)c3c(=O)c2cc1O` [Compound 7, 1,3,7-trihydroxy-6-methoxyxanthone], the IC50 in the series with LO2 [8] is 12.1 ± 0.14 µM; with Huh-7 [1] (setting [21]), above 40 µM; in the series with PLC/PRF/5 [3] (setting [22]) it was above 40 µM; in the series on HepG2 [4] (setting [23]) it was above 40 µM; in the series with SK-HEP-1 [5] (setting [25]), 37.1 ± 0.97 µM; with SK-HEP-1 [5] (setting [28]) it was 10 to 40 µM. In addition, the IC50 with SMMC-7721 [7] (setting [26]) is 28.2 ± 0.89 µM; in the series with SMMC-7721 [7] (setting [27]) it was 10 to 40 µM.
Regarding `C=C(C)[C@@H]1Cc2c(cc(O)c3c(=O)c4ccc(O)c(O)c4oc23)OC1C=C(C)C` (some centres unmarked) [Compound 9, Hypxanthone B], the IC50 in the series with LO2 [8] is above 40 µM; with Huh-7 [1] (setting [21]), 25.8 ± 2.04 µM; in the series with Huh-7 [1] (setting [29]), 10 to 40 µM; in series [2] (Homo sapiens, read-out: cytotoxicity (class)), 10 to 40 µM; in the series with PLC/PRF/5 [3] (setting [22]), 30.8 ± 0.38 µM; in the series on PLC/PRF/5 [3] (setting [30]), 10 to 40 µM. Besides, the IC50 was 11.93 ± 0.1 µM with HepG2 [4] (setting [23]), 10 to 40 µM in the series with HepG2 [4] (setting [24]), above 40 µM in the series with SK-HEP-1 [5] (setting [25]) and 8.26 ± 0.57 µM with SMMC-7721 [7] (setting [26]).
As to `C=C(C)C(CC=C(C)C)Cc1c(O)cc(O)c2c(=O)c3ccc(O)c(O)c3oc12` (centres unmarked) [Compound 10, calycinoxanthon D], the IC50 in the series on LO2 [8] is 12.2 ± 0.25 µM; in the series on Huh-7 [1] (setting [21]), 16.6 ± 0.24 µM; in the series on Huh-7 [1] (setting [29]), 10 to 40 µM; in the series with PLC/PRF/5 [3] (setting [22]), 24.9 ± 0.46 µM; with PLC/PRF/5 [3] (setting [30]), 10 to 40 µM; with HepG2 [4] (setting [23]), 21.33 ± 0.16 µM. Moreover, the IC50 is 10 to 40 µM in the series with HepG2 [4] (setting [24]), 31.1 ± 2.67 µM with SK-HEP-1 [5] (setting [25]), 10 to 40 µM in the series with SK-HEP-1 [5] (setting [28]) and 6.27 ± 0.16 µM in the series on SMMC-7721 [7] (setting [26]).
`CC(=O)O[C@H]1C(=O)[C@@]2(C)[C@H]([C@H](OC(=O)c3ccccc3)[C@]3(O)C[C@H](OC(=O)[C@H](O)[C@@H](NC(=O)c4ccccc4)c4ccccc4)C(C)=C1C3(C)C)[C@]1(OC(C)=O)CO[C@@H]1C[C@@H]2O` [Taxol, reference compound]: the IC50 with LO2 [8] was below 0.01 µM; in the series on Huh-7 [1] (setting [21]) it was 0.11 ± 0.011 µM; with PLC/PRF/5 [3] (setting [22]), below 0.01 µM; in the series on HepG2 [4] (setting [23]), below 0.01 µM; in the series with SK-HEP-1 [5] (setting [25]) it was below 0.01 µM; with SMMC-7721 [7] (setting [26]), 0.18 ± 0.03 µM.
On to isojacareubin [Compound 6], for which the IC50 was 10 to 40 µM with PLC/PRF/5 [9]; 9.09 ± 0.38 µM in the series on Huh-7 [1] (setting [14]); 1.41 to 11.8 µM in [2] (setting [15]); below 10 µM with SK-HEP-1 [10]; 11.8 ± 0.56 µM in the series on PLC/PRF/5 [3] (setting [16]); 2.4 ± 0.02 µM with HepG2 [4] (setting [17]). The IC50 in the series on Huh-7 [11] is below 10 µM; in the series on SK-HEP-1 [5] (setting [18]) it was 9.2 ± 0.21 µM; in the series on SMMC-7721 [12], below 10 µM; with HepG2 [13], below 10 µM; with LO2 [6], below 10 µM; in the series on LO2 [6] (setting [19]), 2.03 ± 0.04 µM. Besides, in the series with SMMC-7721 [7] (setting [20]), the IC50 was determined as 1.41 ± 0.03 µM. Moreover, in the series with PKC, the “inhibition of PKC” value is “potent inhibitor”.
